Where two headings read alike, the source gives them in different places.
Assays:
KRAS-G12V/RAF1 = KRAS-G12V/RAF1 (Homo sapiens (Human), UniProt P01116, G12V); experiment: KRAS/RAF1 binding inhibition assay (AlphaScreen)
How it was run: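 IC50 comes from variable-slope nonlinear fits of % inhibition (relative to DMSO) against inhibitor concentration. The AlphaScreen signal tracks the interaction of GppNHp-bound KRAS G12V with the RAF1 RBD after 60 min at 4° C with compound in 2% DMSO final.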

SW620 cells = experiment: 3D cell growth inhibition of SW620 cells carrying endogenous KRAS G12V mutation (CellTiter-Glo 3D, GI50); type: cell-based; conditions: Homo sapiens, SW-620, 144 h, read-out: SW620 3D cell growth GI50
How it was run: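 […], compound exposure lasted 6 days at 37° C, added the day after plating from DMSO stocks over a concentration range. Cells: SW620, KRAS G12V, 3D culture.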

KRAS G12V = KRAS G12V (Homo sapiens (Human), UniProt P01116, G12V); experiment: KRAS G12V degradation in SW620 cells (Western blot, DC50); type: cell-based; conditions: 24 hours
How it was run: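 KRAS levels were quantified by fluorescent Western blot as percent of the DMSO control after 24 h of compound exposure at 37° C in homozygous KRAS G12V SW620 cells. A four-parameter variable-slope fit of the dose-response gave the half-maximal degradation concentration.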

Sequence of KRAS G12V (P01116-2 other isoform, or with tags, fused parts or gaps G12V): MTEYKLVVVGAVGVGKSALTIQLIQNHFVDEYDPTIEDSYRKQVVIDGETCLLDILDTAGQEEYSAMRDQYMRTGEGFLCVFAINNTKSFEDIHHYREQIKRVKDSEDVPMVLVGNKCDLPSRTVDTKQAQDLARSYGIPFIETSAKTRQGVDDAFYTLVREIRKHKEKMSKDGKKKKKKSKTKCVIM
Sequence of KRAS-G12V/RAF1 (P01116-2 other isoform, or with tags, fused parts or gaps G12V): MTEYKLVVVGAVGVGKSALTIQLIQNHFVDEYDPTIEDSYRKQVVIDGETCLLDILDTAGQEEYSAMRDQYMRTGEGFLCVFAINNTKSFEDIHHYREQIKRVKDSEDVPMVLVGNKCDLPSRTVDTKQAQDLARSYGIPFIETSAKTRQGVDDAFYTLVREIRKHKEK

| SMILES | IC50 (KRAS-G12V/RAF1) | GI50 (SW620 cells; SW620 cells, 6 days) | DC50 (KRAS G12V) | GI50 (SW620 cells) |
| --- | --- | --- | --- | --- |
| C[C@@]1(O)CCCN(c2nc(OCC3(CN4CCC5(CC4)CC(F)(CN4CCN(c6ccc7c(c6)CN([C@H]6CCC(=O)NC6=O)C7=O)CC4)C5)CC3)nc3c(F)c(-c4cc(O)cc5ccc(F)c(F)c45)ncc23)C1 [Compound 174, (S)-3-(5-(4-((7-((1-(((7-(7,8-difluoro-3-hydroxynaphthalen-1-yl)-8-fluoro-4-((R)-3-hydroxy-3-methylpiperidin-1-yl)pyrido[4,3-d]pyrimidin-2-yl)oxy)methyl)cyclopropyl)methyl)-2-fluoro-7-azaspiro[3.5]nonan-2-yl)methyl)piperazin-1-yl)-1-oxoisoindolin-2-yl)piperidine-2,6-dione] | 20 to 200 nM | < 10 nM | < 1 nM |  |
| C[C@@]1(O)CCCN(c2nc(OCC3(CN4CCC5(CC4)CC(CN4CCN(c6ccc7c(c6)CN([C@H]6CCC(=O)NC6=O)C7=O)CC4)C5)CC3)nc3c(F)c(-c4cc(O)cc5cccc(Cl)c45)ncc23)C1 [Compound 129, (S)-3-(5-(4-((7-((1-(((7-(8-chloro-3-hydroxynaphthalen-1-yl)-8-fluoro-4-((R)-3-hydroxy-3-methylpiperidin-1-yl)pyrido[4,3-d]pyrimidin-2-yl)oxy)methyl)cyclopropyl)methyl)-7-azaspiro[3.5]nonan-2-yl)methyl)piperazin-1-yl)-1-oxoisoindolin-2-yl)piperidine-2,6-dione] | 20 to 200 nM | 10 to 100 nM | < 1 nM |  |
| CCc1cccc2cc(O)cc(-c3ncc4c(N5CCC[C@@](C)(O)C5)nc(OCC5(CN6CCC(CN7CC8(CCN(c9ccc%10c(c9)CN(C9CCC(=O)NC9=O)C%10=O)CC8)C7)CC6)CC5)nc4c3F)c12 (stereo partly drawn) [Compound 19, 3-(5-(2-((1-((1-(((7-(8-ethyl-3-hydroxynaphthalen-1-yl)-8-fluoro-4-((R)-3-hydroxy-3-methylpiperidin-1-yl)pyrido[4,3-d]pyrimidin-2-yl)oxy)methyl)cyclopropyl)methyl)piperidin-4-yl)methyl)-2,7-diazaspiro[3.5]nonan-7-yl)-1-oxoisoindolin-2-yl)piperidine-2,6-dione] | 20 to 200 nM | 10 to 100 nM | 1 to 10 nM |  |
| CCc1c(F)ccc2cc(O)cc(-c3ncc4c(N5C[C@@H]6C[C@H](C5)[C@H](O)C6)nc(OCC5(CN6CCC7(CC6)CC(CN6CCN(c8ccc9c(c8)CN([C@H]8CCC(=O)NC8=O)C9=O)CC6)C7)CC5)nc4c3F)c12 [Compound 90, (S)-3-(5-(4-((7-((1-(((7-(8-ethyl-7-fluoro-3-hydroxynaphthalen-1-yl)-8-fluoro-4-((IR,5R,6R)-6-hydroxy-3-azabicyclo[3.2.1]octan-3-yl)pyrido[4,3-d]pyrimidin-2-yl)oxy)methyl)cyclopropyl)methyl)-7-azaspiro[3.5]nonan-2-yl)methyl)piperazin-1-yl)-1-oxoisoindolin-2-yl)piperidine-2,6-dione] | > 200 nM | < 10 nM | 1 to 10 nM |  |
| CCc1c(F)ccc2cc(O)cc(-c3ncc4c(N5CCC[C@@H](O)CC5)nc(OCC5(CN6CCC(CN7CCN(c8ccc9c(c8)CN([C@H]8CCC(=O)NC8=O)C9=O)CC7)CC6)CC5)nc4c3F)c12 [Compound 117, (S)-3-(5-(4-((1-((1-(((7-(8-ethyl-7-fluoro-3-hydroxynaphthalen-1-yl)-8-fluoro-4-((R)-4-hydroxyazepan-1-yl)pyrido[4,3-d]pyrimidin-2-yl)oxy)methyl)cyclopropyl)methyl)piperidin-4-yl)methyl)piperazin-1-yl)-1-oxoisoindolin-2-yl)piperidine-2,6-dione] | > 200 nM | > 100 nM | 1 to 10 nM |  |
| CCc1c(F)ccc2cc(O)cc(-c3ncc4c(N5CCC[C@@](C)(O)C5)nc(OCC5(CN6CCC7(CCN(CCc8cc(F)c(C9CCC(=O)NC9=O)c(F)c8)CC7)CC6)CC5)nc4c3F)c12 (stereo partly drawn) [Compound 56, 3-(4-(2-(9-((1-(((7-(8-ethyl-7-fluoro-3-hydroxynaphthalen-1-yl)-8-fluoro-4-((R)-3-hydroxy-3-methylpiperidin-1-yl)pyrido[4,3-d]pyrimidin-2-yl)oxy)methyl)cyclopropyl)methyl)-3,9-diazaspiro[5.5]undecan-3-yl)ethyl)-2,6-difluorophenyl) piperidine-2,6-dione] | < 20 nM |  | 1 to 10 nM | < 10 nM |

The next lines start with results.

| IC50 (KRAS-G12V/RAF1) | GI50 (SW620 cells; SW620 cells, 6 days) | DC50 (KRAS G12V) | SMILES | GI50 (SW620 cells) |
| --- | --- | --- | --- | --- |
| 20 to 200 nM | < 10 nM | < 1 nM | CCc1c(F)ccc2cc(O)cc(-c3ncc4c(N5CCC[C@@](C)(O)C5)nc(OCC5(CN6CCN(C7CC8(C7)CN(c7ccc9c(c7)CN(C7CCC(=O)NC7=O)C9=O)C8)CC6)CC5)nc4c3F)c12 (stereo partly drawn) [Compound 161, 3-(5-(6-(4-((1-(((7-(8-ethyl-7-fluoro-3-hydroxynaphthalen-1-yl)-8-fluoro-4-((R)-3-hydroxy-3-methylpiperidin-1-yl)pyrido[4,3-d]pyrimidin-2-yl)oxy)methyl)cyclopropyl)methyl)piperazin-1-yl)-2-azaspiro[3.3]heptan-2-yl)-1-oxoisoindolin-2-yl)piperidine-2,6-dione] |  |
| < 20 nM | < 10 nM | < 1 nM | CCc1c(F)ccc2cc(O)cc(-c3ncc4c(N5CCC[C@@](C)(O)C5)nc(OCC5(CN6CCC(OC7CCN(C8CCN(c9ccc%10c(c9)CN(C9CCC(=O)NC9=O)C%10=O)CC8)CC7)CC6)CC5)nc4c3F)c12 (stereo partly drawn) [Compound 43, 3-(5-(4-((1-((1-(((7-(8-ethyl-7-fluoro-3-hydroxynaphthalen-1-yl)-8-fluoro-4-((R)-3-hydroxy-3-methylpiperidin-1-yl)pyrido[4,3-d]pyrimidin-2-yl)oxy)methyl)cyclopropyl)methyl)piperidin-4-yl)oxy)-[1,4′-bipiperidin]-1′-yl)-1-oxoisoindolin-2-yl)piperidine-2,6-dione] |  |
| 20 to 200 nM | < 10 nM | < 1 nM | CCc1c(F)ccc2cc(O)cc(-c3ncc4c(N5CCC[C@@](C)(O)C5)nc(OCC5(CN6CC(N7CCC8(CC7)CN(c7ccc9c(c7)CN(C7CCC(=O)NC7=O)C9=O)C8)C6)CC5)nc4c3F)c12 (stereo partly drawn) [Compound 152, 3-(5-(7-(1-((1-(((7-(8-ethyl-7-fluoro-3-hydroxynaphthalen-1-yl)-8-fluoro-4-((R)-3-hydroxy-3-methylpiperidin-1-yl)pyrido[4,3-d]pyrimidin-2-yl)oxy)methyl)cyclopropyl)methyl)azetidin-3-yl)-2,7-diazaspiro[3.5]nonan-2-yl)-1-oxoisoindolin-2-yl)piperidine-2,6-dione] |  |
| 20 to 200 nM | 10 to 100 nM | < 1 nM | CCc1c(F)ccc2cc(O)cc(-c3ncc4c(N5CCC[C@@](C)(O)C5)nc(OCC5(CN6CCC7(CC6)CC(CN6CCN(c8ccc9c(c8)CN([C@H]8CCC(=O)NC8=O)C9=O)CC6)C7)CC5)nc4c3F)c12 [Compound 2, (S)-3-(5-(4-((7-((1-(((7-(8-ethyl-7-fluoro-3-hydroxynaphthalen-1-yl)-8-fluoro-4-((R)-3-hydroxy-3-methylpiperidin-1-yl)pyrido[4,3-d]pyrimidin-2-yl)oxy)methyl)cyclopropyl)methyl)-7-azaspiro[3.5]nonan-2-yl)methyl)piperazin-1-yl)-1-oxoisoindolin-2-yl)piperidine-2,6-dione] |  |
| < 20 nM | > 100 nM | > 100 nM | CCc1cccc2cc(O)cc(-c3ncc4c(N5CCC[C@@](C)(O)C5)nc(OCC5(CN6CC7(CCC(N8CCN(c9ccc%10c(c9)CN([C@H]9CCC(=O)NC9=O)C%10=O)CC8)CC7)C6)CC5)nc4c3F)c12 [Compound 141, (S)-3-(5-(4-(2-((1-(((7-(8-ethyl-3-hydroxynaphthalen-1-yl)-8-fluoro-4-((R)-3-hydroxy-3-methylpiperidin-1-yl)pyrido[4,3-d]pyrimidin-2-yl)oxy)methyl)cyclopropyl)methyl)-2-azaspiro[3.5]nonan-7-yl)piperazin-1-yl)-1-oxoisoindolin-2-yl)piperidine-2,6-dione] |  |
| 20 to 200 nM | 10 to 100 nM | > 100 nM | CCc1c(F)ccc2cc(O)cc(-c3ncc4c(N5CCC[C@@](C)(O)C5)nc(OCC5(CN6CCN(C7CCC8(CC7)CCN(c7ccc9c(c7)CN(C7CCC(=O)NC7=O)C9=O)CC8)CC6)CC5)nc4c3F)c12 (stereo partly drawn) [Compound 171, 3-(5-(9-(4-((1-(((7-(8-ethyl-7-fluoro-3-hydroxynaphthalen-1-yl)-8-fluoro-4-((R)-3-hydroxy-3-methylpiperidin-1-yl)pyrido[4,3-d]pyrimidin-2-yl)oxy)methyl)cyclopropyl)methyl)piperazin-1-yl)-3-azaspiro[5.5]undecan-3-yl)-1-oxoisoindolin-2-yl)piperidine-2,6-dione] |  |
| < 20 nM | < 10 nM | < 1 nM | CCc1c(F)ccc2cc(O)cc(-c3ncc4c(N5CCC[C@@](C)(O)C5)nc(OCC5(CN6CCC(CN7CCC(N8CCN(c9ccc%10c(c9)CN([C@H]9CCC(=O)NC9=O)C%10=O)CC8)CC7)CC6)CC5)nc4c3F)c12 [Compound 148, (S)-3-(5-(4-(1-((1-((1-(((7-(8-ethyl-7-fluoro-3-hydroxynaphthalen-1-yl)-8-fluoro-4-((R)-3-hydroxy-3-methylpiperidin-1-yl)pyrido[4,3-d]pyrimidin-2-yl)oxy)methyl)cyclopropyl)methyl)piperidin-4-yl)methyl)piperidin-4-yl)piperazin-1-yl)-1-oxoisoindolin-2-yl)piperidine-2,6-dione] |  |

— patent US20250092039A1, “GLUTARIMIDE-CONTAINING PAN-KRAS-MUTANT DEGRADER COMPOUNDS AND USES THEREOF” (Tiger Biotherapeutics Inc., priority 2022, published 2025)
